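Five concentrations, 48 hours, 96-well plates. At the GI50, growth is halved.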 Calls of active or inactive are those of the source. Rule as the data show it: active = GI50 up to about 1.1 µM and inactive = higher.
Legend:
Test in all cases: NCI-60 cell line screen, 48 h
[1] = system: A498
[2] = system: HOP-62
[3] = system: HT-29
[4] = system: IGROV-1
[5] = system: K562
[6] = system: KM12
[7] = system: LOX IMVI
[8] = system: MCF7
[9] = system: NCI-H226
[10] = system: NCI-H460
[11] = system: NCI-H522
[12] = system: NCI/ADR-RES
[13] = system: OVCAR-5
[14] = system: RPMI-8226
[15] = system: SF-268
[16] = system: SK-MEL-2
[17] = system: SN12C
[18] = system: SNB-19
[19] = system: UO-31
[20] = system: SK-OV-3

Measured: GI50

O=C(O)c1cccc(/[As]=[As]\c2cccc(C(=O)O)c2)c1 (centres undefined)
inactive: [1] 28 µM | [2] 35.2 µM | [3] 49.3 µM | [4] 34.2 µM | [5] 34.7 µM | [6] > 100 µM | [7] 18.2 µM | [8] 32.9 µM | [9] 84.9 µM | [10] 36 µM | [11] 17.9 µM | [12] 75.7 µM | [13] 24.5 µM | [14] 23 µM | [15] 29.3 µM | [16] 21.7 µM | [17] 38.2 µM | [18] 32.2 µM | [19] 38.2 µM

COC(=O)c1ccccc1NC(=O)/C(=N\NC(C)(C)C)C(C#N)c1nc(-c2ccc([N+](=O)[O-])cc2)cs1 (centres undefined)
inactive: [1] > 100 µM | [3] > 100 µM | [4] > 100 µM | [5] > 100 µM | [6] > 100 µM | [7] > 100 µM | [8] > 100 µM | [9] > 100 µM | [10] > 100 µM | [11] > 10 µM | [12] > 100 µM | [13] > 100 µM | [14] > 100 µM | [15] > 100 µM | [16] > 100 µM | [20] > 100 µM | [17] > 100 µM | [18] > 100 µM | [19] > 100 µM

CCC(C)C1=C(OC(C)=O)[N+]2([O-])Oc3ccc(-c4c(OC(C)=O)c(OC(C)=O)c(-c5ccc(OC(C)=O)cc5)c(OC(C)=O)c4OC(C)=O)cc3OC2(C(C)CC)C(=O)N1OC(C)=O (centres undefined)
inactive: [1] > 50 µM | [3] 19.9 µM | [4] 11.5 µM | [5] 12.2 µM | [6] 19.3 µM | [7] 17.2 µM | [8] 19.6 µM | [9] 21.1 µM | [10] 18.9 µM | [11] 8.53 µM | [12] > 50 µM | [13] 24 µM | [14] 10.3 µM | [15] 12.4 µM | [16] 14.9 µM | [20] 43 µM | [17] 34.3 µM | [18] 30.1 µM | [19] 30.6 µM

O=C(NNC(=S)Nc1ccc(Br)cc1)c1cc(-c2ccccc2)nc2ccccc12
inactive: [1] 13.8 µM | [2] 20 µM | [3] 32.1 µM | [4] 37.8 µM | [5] 25.2 µM | [6] 29.9 µM | [8] 18.4 µM | [9] 24.3 µM | [10] 20.8 µM | [11] 22.2 µM | [12] 18.6 µM | [13] 24.9 µM | [14] 14.3 µM | [15] 33.3 µM | [16] 20 µM | [20] 25.2 µM | [17] 19.1 µM | [18] 27.2 µM | [19] 17.1 µM

Cc1ccc(C2=Nc3cc(C)c(Cl)cc3S(=O)(=O)NN2)cc1
inactive: [1] > 100 µM | [2] > 100 µM | [3] > 100 µM | [4] > 100 µM | [5] 36.3 µM | [6] > 100 µM | [7] > 100 µM | [8] > 100 µM | [9] > 100 µM | [10] > 100 µM | [11] > 100 µM | [12] > 100 µM | [14] > 100 µM | [15] 82.6 µM | [20] > 100 µM | [17] > 100 µM | [18] 44.6 µM | [19] > 100 µM

COc1cc2oc(-c3ccc(O)cc3)c(OC3OC(C)C(O)C(O)C3O)c(=O)c2c(O)c1OC (centres undefined)
inactive: [1] > 100 µM | [2] > 100 µM | [3] > 100 µM | [4] > 100 µM | [5] 54.3 µM | [6] > 100 µM | [7] 57.7 µM | [8] 55.7 µM | [9] > 100 µM | [10] 45.8 µM | [11] 37 µM | [12] 75.5 µM | [13] > 100 µM | [14] 16.7 µM | [15] > 100 µM | [16] > 100 µM | [20] > 100 µM | [17] > 100 µM | [18] > 100 µM

O=c1cc(NNc2cccc(Cl)c2)[nH]c(=O)[nH]1
inactive: [1] 42.2 µM | [3] 80.2 µM | [4] > 100 µM | [5] 29 µM | [6] 45.5 µM | [7] 15.4 µM | [8] 1.88 µM | [9] > 100 µM | [10] > 100 µM | [11] 17.5 µM | [12] > 100 µM | [13] 77.4 µM | [14] 20.3 µM | [15] > 100 µM | [16] 42.4 µM | [20] > 100 µM | [18] 46.3 µM | [19] 18.8 µM

Cc1ccccc1N1C(N)=C(C#N)C(C#N)(C#N)C1c1ccccc1 (centres undefined)
inactive: [1] 16.6 µM | [2] 19.4 µM | [3] 18.4 µM | [4] 17.9 µM | [6] 16.8 µM | [7] 17.7 µM | [8] 23.6 µM | [9] 20.7 µM | [11] 15.3 µM | [12] 20.7 µM | [13] 21.9 µM | [14] 19.2 µM | [15] 20.9 µM | [16] 25.9 µM | [20] 31.3 µM | [17] 23.3 µM | [18] 20 µM | [19] 16.8 µM

C[C@@H]1CC(=O)[C@@]2(C)[C@](O)(CCC3O[C@]32C)[C@@]12CC(c1ccoc1)OC2=O (some centres undefined)
inactive: [1] 94.4 µM | [3] 48.5 µM | [4] > 100 µM | [5] 39.1 µM | [6] > 100 µM | [7] 35.2 µM | [8] 84.5 µM | [9] > 100 µM | [10] 66.7 µM | [11] 45.6 µM | [12] 46.2 µM | [13] > 100 µM | [14] 33.3 µM | [16] > 100 µM | [20] > 100 µM | [18] > 100 µM | [19] > 100 µM

NCCCC(N)(C(=O)O)C(F)F (centres undefined) [EFLORNITHINE]
inactive: [1] > 5000 µM | [2] > 5000 µM | [3] > 2790 µM | [4] > 5000 µM | [5] > 2880 µM | [6] > 5000 µM | [7] 678 µM | [8] > 5000 µM | [9] > 5000 µM | [10] 933 µM | [11] > 5000 µM | [12] > 5000 µM | [14] > 5000 µM | [15] > 5000 µM | [16] > 5000 µM | [20] > 5000 µM | [17] > 1980 µM | [18] > 5000 µM | [19] > 5000 µM

O=C(/C=C/c1ccc(O)cc1)NCCc1ccc(O)cc1 [N-P-COUMAROYL TYRAMINE]
inactive: [1] > 12.5 µM | [2] > 12.5 µM | [3] > 12.5 µM | [4] 8.3 µM | [5] 5.6 µM | [6] > 12.5 µM | [7] > 12.5 µM | [8] > 12.5 µM | [9] > 12.5 µM | [10] 11.2 µM | [11] 3.38 µM | [12] 3.62 µM | [13] > 12.5 µM | [14] 6.95 µM | [15] 9.57 µM | [16] > 12.5 µM | [17] 5 µM | [18] > 12.5 µM | [19] 11.1 µM
